# According to patent US12459951B2, “Compounds that interact with RAS superfamily proteins for treatment of cancers, inflammatory diseases, rasopathies, and fibrotic disease” (SHY Therapeutics, LLC, priority 2022, dated 2025):
# Structures can show the parent of a compound that is named as a salt.
# How the values were obtained:
# [1] = tested on: Akt phosphorylation; assay: Akt Phosphorylation Assay (western blot), Panc-1; assay type: cell-based, human; conditions: at 10 μM, * = activation
# Outline: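 Panc-1 (KRas G12D) cells were treated with compound at 10 μM final (0.3% DMSO) for 6 h at 37 °C, or with serial dilutions for IC50. Cells were either serum-starved overnight in 0.5% FBS and then stimulated with 1.5 ng/ml EGF for 15 min, or kept in 10% FBS without stimulation. Akt Ser473 phosphorylation in lysates was read by western blot.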
# [2] = tested on: TNF-alpha; assay: TNF-alpha Quantification Assay (ELISA), LPS-stimulated RAW 264.7; assay type: cell-based; conditions: Mus musculus, RAW264.7; at 10 μM; read-out: TNFα: % inh.
# [3] = tested on: KRas G12D mutant; assay: Ras GTP Binding Domain Inhibition Assay (Ras Superfamily Assay); conditions: for KRas G12D mutant + SOS: % inh.: with SOS; for KRas G12D mutant: % inh.: without SOS
# Outline: (§1)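 His-tagged GTPases immobilised on nickel-coated plates, pre-incubated with compound (20 μM single point, or serial dilution for IC50) 3 h at room temperature, with or without 10-30 μg/mL Sos (residues 556-1049) in the final hour. Bound Cy3- or Cy5-GTP (100 nM, 45 min) measured by fluorescence after washing.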
# [4] = tested on: KRas wild type; assay: as above; conditions: for KRas wild type + SOS: % inh.: with SOS; for KRas wild type: % inh.: without SOS
# Outline: as §1
# [5] = target: T1, Rac-1 (Homo sapiens, UniProt P63000); assay: as above; conditions: read-out: Rac-1: % inh.
# T1 construct: made in house
# Outline: as §1
KRas G12D mutant + SOS: % inh. ([3]; 20 μM compound),KRas G12D mutant: % inh. ([3]; 20 μM compound),KRas wild type + SOS: % inh. ([4]; 20 μM compound),KRas wild type: % inh. ([4]; 20 μM compound),inhibition at 20 µM [5],KRas G12D mutant + SOS: % inh. ([3]; at 20 μM),KRas G12D mutant: % inh. ([3]; at 20 μM),KRas wild type + SOS: % inh. ([4]; at 20 μM),KRas wild type: % inh. ([4]; at 20 μM),Compound,% inh of Akt phosphorylation in Panc-1 [1],inhibition at 10 µM [2]
A (A = 1-25% inhibition),B (B = 26-49% inhibition),A (A = 1-25% inhibition),A (A = 1-25% inhibition),0%,,,,,"COCC1CCN(c2nc(-c3nccn3C)nn3cc(-c4ccn(C(C)C)n4)c(-c4ccccc4)c23)C1.Cl (racemic) [Compound 19, rac 6-(1-Isopropyl-1H-pyrazol-3-yl)-4-(3-(methoxymethyl)pyrrolidin-1-yl)-2-(1-methyl-1H-imidazol-2-yl)-5-phenylpyrrolo[2,1-f][1,2,4]triazine hydrochloride salt]",D* (85-100% activation),25 to 49%
0 (0 = 0% inhibition),A (A = 1-25% inhibition),A (A = 1-25% inhibition),A (A = 1-25% inhibition),0%,,,,,"COC[C@@H]1CC[C@@H]1CNc1nc(-c2nccn2C)nn2cc(-c3ccn(C(C)C)n3)c(-c3ccccc3)c12 (racemic) [Compound 20, rac 6-(1-Isopropyl-1H-pyrazol-3-yl)-N-(((1S,2R)-2-(methoxymethyl)cyclobutyl)methyl)-2-(1-methyl-1H-imidazol-2-yl)-5-phenylpyrrolo[2,1-f][1,2,4]triazin-4-amine]",D (85-100% inhibition),1 to 24%
0 (0 = 0% inhibition),0 (0 = 0% inhibition),A (A = 1-25% inhibition),0 (0 = 0% inhibition),26 to 49%,,,,,"COc1cccc(-c2cn3nc(-c4nccn4C)nc(N[C@@H]4CC[C@@H](OC)C4)c3c2-c2ccccc2)c1Cl.Cl (racemic) [Compound 34, rac 6-(2-Chloro-3-methoxyphenyl)-N-((1R,3R)-3-methoxycyclopentyl)-2-(1-methyl-1H-imidazol-2-yl)-5-phenylpyrrolo[2,1-f][1,2,4]triazin-4-amine hydrochloride]",D (85-100% inhibition),1 to 24%
,,,,26 to 49%,B (B = 26-49% inhibition),B (B = 26-49% inhibition),A (A = 1-25% inhibition),B (B = 26-49% inhibition),"COc1cccc(-c2cn3nc(-c4nccn4C)nc(N[C@@H]4CC[C@@H](OC)C4)c3c2-c2ccccc2)c1C (racemic) [Compound 270, rac 6-(3-Methoxy-2-methylphenyl)-N-((1R,3R)-3-methoxycyclopentyl)-2-(1-methyl-1H-imidazol-2-yl)-5-phenylpyrrolo[2,1-f][1,2,4]triazin-4-amine]",D (85-100% inhibition),75 to 100%
B (B = 26-49% inhibition),B (B = 26-49% inhibition),A (A = 1-25% inhibition),B (B = 26-49% inhibition),26 to 49%,,,,,"COc1cc(Nc2nc(-c3nccn3C)nn3cc(-c4ccn(C(C)C)n4)c(-c4ccccc4)c23)ncn1 [Compound 22, 6-(1-Isopropyl-1H-pyrazol-3-yl)-N-(6-methoxypyrimidin-4-yl)-2-(1-methyl-1H-imidazol-2-yl)-5-phenylpyrrolo[2,1-f][1,2,4]triazin-4-amine]",A* (1-25% activation),0%
B (B = 26-49% inhibition),B (B = 26-49% inhibition),B (B = 26-49% inhibition),B (B = 26-49% inhibition),0%,,,,,"Cc1ccn2nc(-c3nccn3C)nc(N)c12.O=C(O)C(F)(F)F [Compound 37, 5-Methyl-2-(1-methyl-1H-imidazol-2-yl)pyrrolo[2,1-f][1,2,4]triazin-4-amine trifluoroacetic acid salt]",0 (0% inhibition),0%
A (A = 1-25% inhibition),A (A = 1-25% inhibition),A (A = 1-25% inhibition),A (A = 1-25% inhibition),0%,,,,,"Cn1ccnc1-c1nc(O)c2c(-c3ccccc3)ccn2n1 [Compound 39, 2-(1-Methyl-1H-imidazol-2-yl)-5-phenylpyrrolo[2,1-f][1,2,4]triazin-4-ol]",0 (0% inhibition),0%
A (A = 1-25% inhibition),B (B = 26-49% inhibition),A (A = 1-25% inhibition),A (A = 1-25% inhibition),26 to 49%,,,,,"Cc1c(-c2ccn(C(C)C)n2)cn2nc(-c3nccn3C)nc(Nc3noc(C4CC4)n3)c12 [Compound 75, 5-Cyclopropyl-N-(6-(1-isopropyl-1H-pyrazol-3-yl)-5-methyl-2-(1-methyl-1H-imidazol-2-yl)pyrrolo[2,1-f][1,2,4]triazin-4-yl)-1,2,4-oxadiazol-3-amine]",A* (1-25% activation),1 to 24%

# Continued, molecule first:
Compound,KRas G12D mutant + SOS: % inh. ([3]; 20 μM compound),KRas G12D mutant: % inh. ([3]; 20 μM compound),KRas wild type + SOS: % inh. ([4]; 20 μM compound),KRas wild type: % inh. ([4]; 20 μM compound),inhibition at 20 µM [5],KRas G12D mutant + SOS: % inh. ([3]; at 20 μM),KRas G12D mutant: % inh. ([3]; at 20 μM),KRas wild type + SOS: % inh. ([4]; at 20 μM),KRas wild type: % inh. ([4]; at 20 μM),% inh of Akt phosphorylation in Panc-1 [1],inhibition at 10 µM [2]
"CO[C@H]1CC[C@@H](Nc2nc(-c3nccn3C)nn3cc(-c4ccn(C(C)C)n4)c(-c4ccccc4)c23)C1 (racemic) [Compound 18, rac 6-(1-Isopropyl-1H-pyrazol-3-yl)-N-((1R,3S)-3-methoxycyclopentyl)-2-(1-methyl-1H-imidazol-2-yl)-5-phenylpyrrolo[2,1-f][1,2,4]triazin-4-amine hydrochloride]",0 (0 = 0% inhibition),A (A = 1-25% inhibition),A (A = 1-25% inhibition),B (B = 26-49% inhibition),0%,,,,,D* (85-100% activation),1 to 24%
"COC1CCCN(c2nc(-c3nccn3C)nn3cc(-c4ccn(C(C)C)n4)c(-c4ccccc4)c23)C1 (racemic) [Compound 21, rac 6-(1-Isopropyl-1H-pyrazol-3-yl)-4-(3-methoxypiperidin-1-yl)-2-(1-methyl-1H-imidazol-2-yl)-5-phenylpyrrolo[2,1-f][1,2,4]triazine]",0 (0 = 0% inhibition),B (B = 26-49% inhibition),A (A = 1-25% inhibition),A (A = 1-25% inhibition),0%,,,,,C* (46-84% activation),0%
"COc1cccc(-c2cn3nc(-c4nccn4C)nc(N[C@@H]4CC[C@H](OC)C4)c3c2-c2ccccc2)c1C (racemic) [Compound 271, rac 6-(3-Methoxy-2-methylphenyl)-N-((1R,3S)-3-methoxycyclopentyl)-2-(1-methyl-1H-imidazol-2-yl)-5-phenylpyrrolo[2,1-f][1,2,4]triazin-4-amine]",,,,,26 to 49%,B (B = 26-49% inhibition),B (B = 26-49% inhibition),A (A = 1-25% inhibition),B (B = 26-49% inhibition),D (85-100% inhibition),75 to 100%
"COc1cccc(Nc2nc(-c3nccn3C)nn3cc(-c4ccn(C(C)C)n4)c(C)c23)n1 [Compound 7, 6-(1-Isopropyl-1H-pyrazol-3-yl)-N-(6-methoxypyridin-2-yl)-5-methyl-2-(1-methyl-1H-imidazol-2-yl)pyrrolo[2,1-f][1,2,4]triazin-4-amine]",0 (0 = 0% inhibition),A (A = 1-25% inhibition),0 (0 = 0% inhibition),A (A = 1-25% inhibition),0%,,,,,0 (0% inhibition),0%
"CC(C)n1ccc(-c2cn3nc(-c4nccn4C)nc(O)c3c2-c2ccccc2)n1 [Compound 17, 6-(1-Isopropyl-1H-pyrazol-3-yl)-2-(1-methyl-1H-imidazol-2-yl)-5-phenylpyrrolo[2,1-f][1,2,4]triazin-4-ol]",C (C = 50-75% inhibition),C (C = 50-75% inhibition),C (C = 50-75% inhibition),C (C = 50-75% inhibition),50 to 75%,,,,,D (85-100% inhibition),25 to 49%
"CCc1nc(Nc2nc(-c3nccn3C)nn3cc(-c4ccn(C(C)C)n4)c(C)c23)nn1C [Compound 76, N-(5-Ethyl-1-methyl-1H-1,2,4-triazol-3-yl)-6-(1-isopropyl-1H-pyrazol-3-yl)-5-methyl-2-(1-methyl-1H-imidazol-2-yl)pyrrolo[2,1-f][1,2,4]triazin-4-amine]",0 (0 = 0% inhibition),C (C = 50-75% inhibition),0 (0 = 0% inhibition),B (B = 26-49% inhibition),50 to 75%,,,,,D* (85-100% activation),25 to 49%
